In the supplement of paper PMC10331698:
± gives the standard deviation of the averaged measurements.

Tests used:
Assay in all cases: level (log10 ratio to DMSO vehicle control); higher = higher biomarker level / cell amount than vehicle control
Conditions in all cases: in DMSO
[1] = compound: FC(F)(F)C(F)(F)C(F)(F)C(F)(F)C(F)(F)C(F)(F)C(F)(F)I [1-Iodopentadecafluoroheptane]
Protocol: (§1)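 BioMAP Diversity Plus panel of 12 human primary cell co-culture systems (3C, 4H, LPS, SAg, BT, BF4T, BE3C, CASM3C, HDF3CGF, KF3CT, MyoF, Mphg). Compounds were added 1 h before stimulation and left for 24 h (MyoF 48 h; BT 72 h for soluble read-outs or 6 d for IgG). Biomarkers were read by ELISA, cytotoxicity by SRB, PBMC viability and proliferation by Alamar Blue. Each well value was divided by the mean of 8 DMSO control wells on the same plate and log10 transformed; duplicate blinded samples were tested at 4 concentrations.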

[2] = compound: O=S(=O)(O)CCC(F)(F)C(F)(F)C(F)(F)C(F)(F)C(F)(F)C(F)(F)F [6:2 Fluorotelomer sulfonic acid]
Protocol: as §1

Octafluoroadipamide = compound: NC(=O)C(F)(F)C(F)(F)C(F)(F)C(F)(F)C(N)=O [Octafluoroadipamide]
Protocol: as §1

[3] = compound: O=S(=O)(Cl)C(F)(F)C(F)(F)C(F)(F)C(F)(F)C(F)(F)C(F)(F)C(F)(F)C(F)(F)F [Perfluoro-1-octanesulfonyl chloride]
Protocol: as §1

Heptafluorobutyl iodide = compound: FC(F)(F)C(F)(F)C(F)(F)CI [Heptafluorobutyl iodide]
Protocol: as §1

[4] = compound: FC(F)(F)C(F)(F)C(F)(F)C(F)(F)C(F)(F)C(F)(F)CC1CO1 [3-(Perfluorohexyl)-1,2-epoxypropane]
Protocol: as §1

[5] = compound: O=S(=O)(F)C(F)(F)C(F)(F)C(F)(F)C(F)(F)C(F)(F)C(F)(F)C(F)(F)C(F)(F)F [Perfluorooctanesulfonyl fluoride]
Protocol: as §1

Row | Test System | level (log10) ([1]; 6700 nM) | level (log10) ([1]; 20000 nM) | level (log10) ([2]; 6700 nM) | level (log10) ([2]; 20000 nM) | level (log10) ([2]; 60000 nM) | level (log10) (Octafluoroadipamide; 6700 nM) | level (log10) (Octafluoroadipamide; 20000 nM) | level (log10) (Octafluoroadipamide; 60000 nM) | level (log10) ([3]; 6700 nM) | level (log10) ([3]; 20000 nM) | level (log10) ([3]; 60000 nM) | level (log10) (Heptafluorobutyl iodide; 6700 nM) | level (log10) (Heptafluorobutyl iodide; 20000 nM) | level (log10) (Heptafluorobutyl iodide; 60000 nM) | level (log10) ([4]; 6700 nM) | level (log10) ([4]; 20000 nM) | level (log10) ([4]; 60000 nM) | level (log10) ([5]; 6700 nM) | level (log10) ([5]; 20000 nM) | level (log10) ([5]; 60000 nM)
1 | CASM3C:PAI-I | -0.013 ± 0.011 | 0.0075 ± 0.011 | -0.001 ± 0.023 | -0.0025 ± 0.015 | 0 ± 0.0099 | 0.0005 ± 0.005 | -0.0085 ± 0.012 | 0.0045 ± 0.0092 | -0.003 ± 0.0028 | -0.0095 ± 0.00071 | 0.0005 ± 0.011 | -0.009 ± 0.0085 | -0.0035 ± 0.005 | -0.011 ± 0.0057 | 0.0055 ± 0.005 | 0.002 ± 0.0085 | 0.017 ± 0.0042 | 0.005 ± 0.0071 | -0.005 ± 0.0028 | 0.0045 ± 0.0035
2 | CASM3C:HLA-DR | -0.0255 ± 0.023 | 0.008 ± 0.023 | 0.0245 ± 0.005 | -0.0115 ± 0.0035 | -0.001 ± 0.0085 | -0.0105 ± 0.022 | -0.019 ± 0.0057 | 0.01 ± 0.018 | -0.022 ± 0.014 | -0.053 ± 0.017 | -0.04 ± 0.064 | -0.016 ± 0.024 | -0.022 ± 0.0014 | -0.008 ± 0.0028 | -0.016 ± 0.027 | -0.033 ± 0.0071 | 0.009 ± 0.057 | 0.0065 ± 0.022 | -0.0035 ± 0.0092 | 0.008 ± 0.0057
3 | HDF3CGF:CXCL10/IP-10 | 0.0025 ± 0.0021 | -0.026 ± 0.0071 | -0.0075 ± 0.018 | -0.046 ± 0.021 | -0.0325 ± 0.042 | 0.011 ± 0.0028 | -0.0045 ± 0.016 | 0.031 ± 0.03 | -0.0115 ± 0.0021 | -0.046 ± 0.021 | -0.0365 ± 0.018 | 0.0035 ± 0.012 | -0.007 ± 0.011 | -0.017 ± 0.014 | 0.005 ± 0.031 | 0.012 ± 0.034 | -0.0095 ± 0.037 | -0.0005 ± 0.0021 | -0.015 ± 0.011 | -0.012 ± 0.014
4 | 3C:SRB | -0.001 | 0.001 ± 0.0014 | 0.001 ± 0.0099 | 0.002 ± 0.0057 | -0.0045 ± 0.028 | -0.0105 ± 0.047 | -0.008 ± 0.052 | -0.005 ± 0.03 | -0.0105 ± 0.0078 | 0.0015 ± 0.022 | -0.233 ± 0.084 | -0.0045 ± 0.0064 | -0.0025 ± 0.012 | 0.0025 ± 0.021 | 0.009 ± 0.0042 | 0.014 ± 0.0085 | 0.018 ± 0.0099 | 0.0035 ± 0.00071 | -0.0035 ± 0.0078 | -0.003 ± 0.013
5 | CASM3C:Proliferation | -0.003 ± 0.027 | -0.045 ± 0.0042 | -0.0095 ± 0.029 | 0.024 ± 0.033 | 0.026 ± 0.018 | -0.029 ± 0.023 | -0.0165 ± 0.05 | -0.037 ± 0.051 | -0.011 ± 0.078 | 0.007 ± 0.031 | -0.009 ± 0.011 | -0.008 ± 0.0085 | 0.0235 ± 0.018 | 0.008 ± 0.024 | 0.001 ± 0.021 | -0.0035 ± 0.005 | 0.027 ± 0.027 | -0.0125 ± 0.044 | -0.0265 ± 0.032 | 0.0095 ± 0.0064
6 | HDF3CGF:PAI-I | -0.044 ± 0.0071 | -0.064 ± 0.023 | 0.005 ± 0.0042 | -0.0015 ± 0.0035 | -0.01 ± 0.011 | 0.018 ± 0.0099 | 0.018 ± 0.0014 | 0.009 ± 0.0014 | 0.0185 ± 0.0021 | 0.0435 ± 0.0064 | 0.0255 ± 0.032 | 0.0035 ± 0.043 | -0.004 ± 0.03 | -0.018 ± 0.027 | -0.0375 ± 0.019 | -0.022 ± 0.033 | -0.0115 ± 0.05 | 0.0235 ± 0.12 | 0.035 ± 0.013 | 0.101 ± 0.033
7 | 4H:CD106/VCAM-1 | -0.018 ± 0.0042 | -0.0005 ± 0.0035 | -0.0415 ± 0.0078 | -0.0245 ± 0.0021 | -0.0625 ± 0.033 | 0.0105 ± 0.028 | 0.015 | 0.0235 ± 0.018 | -0.0025 ± 0.052 | -0.0035 ± 0.023 | -0.0305 ± 0.0064 | -0.0215 ± 0.005 | -0.0345 ± 0.026 | 0.0155 ± 0.012 | -0.002 ± 0.027 | -0.0225 ± 0.00071 | -0.0025 ± 0.011 | 0.0005 ± 0.015 | -0.0105 ± 0.012 | -0.012 ± 0.011
8 | 3C:CD62E/E-Selectin | -0.0085 ± 0.00071 | -0.003 ± 0.011 | -0.021 ± 0.034 | 0.003 ± 0.048 | 0.026 ± 0.038 | -0.0175 ± 0.011 | -0.0115 ± 0.0064 | 0.012 ± 0.016 | -0.017 ± 0.0071 | 0.0135 ± 0.021 | 0.11 ± 0.021 | -0.012 ± 0.024 | -0.0115 ± 0.0021 | -0.0165 ± 0.03 | -0.035 ± 0.013 | -0.0375 ± 0.005 | -0.0415 ± 0.0078 | -0.006 ± 0.0057 | -0.01 | -0.006 ± 0.024
9 | BE3C:tPA | -0.006 ± 0.0042 | 0.0075 ± 0.022 | -0.0025 ± 0.016 | 0.029 ± 0.02 | 0.05 ± 0.025 | -0.0485 ± 0.00071 | -0.0395 ± 0.037 | -0.011 ± 0.052 | 0.01 ± 0.047 | 0 ± 0.04 | -0.359 ± 0.11 | -0.0095 ± 0.029 | -0.024 ± 0.011 | 0.015 ± 0.044 | 0.0085 ± 0.019 | -0.014 ± 0.014 | 0.0325 ± 0.018 | -0.045 ± 0.075 | -0.027 ± 0.034 | -0.027 ± 0.027
10 | 3C:CCL2/MCP-1 | -0.0175 ± 0.005 | 0.023 ± 0.027 | -0.0095 ± 0.021 | -0.017 ± 0.024 | 0.012 ± 0.0071 | -0.0065 ± 0.016 | -0.002 ± 0.0014 | 0.03 ± 0.013 | -0.009 ± 0.0085 | -0.0025 ± 0.0092 | 0.017 ± 0.0014 | 0.014 ± 0.051 | -0.014 ± 0.041 | 0.007 ± 0.037 | 0.011 ± 0.02 | -0.004 ± 0.0014 | 0.021 ± 0.031 | -0.014 ± 0.0014 | -0.0215 ± 0.011 | 0.001 ± 0.021
11 | CASM3C:CXCL8/IL-8 | -0.0165 ± 0.016 | 0.001 ± 0.017 | 0.007 ± 0.0042 | -0.016 ± 0.011 | 0.0185 ± 0.019 | -0.007 ± 0.035 | 0.005 ± 0.0028 | -0.005 ± 0.031 | -0.021 ± 0.0057 | -0.0125 ± 0.013 | 0.015 ± 0.035 | 0.0015 ± 0.012 | -0.014 ± 0.014 | -0.001 ± 0.014 | 0.011 ± 0.016 | 0.011 ± 0.0099 | 0.0295 ± 0.025 | 0.0025 ± 0.00071 | -0.0035 ± 0.0035 | 0.0035 ± 0.016
12 | 3C:CXCL8/IL-8 | 0.004 ± 0.0057 | 0.0655 ± 0.021 | -0.034 ± 0.055 | -0.0325 ± 0.053 | 0.06 ± 0.0085 | 0.0145 ± 0.042 | 0.0035 ± 0.025 | 0.041 ± 0.0042 | 0.013 ± 0.014 | 0.043 ± 0.013 | 0.16 ± 0.0099 | -0.026 ± 0.018 | -0.0225 ± 0.019 | -0.0025 ± 0.04 | -0.002 ± 0.0085 | -0.004 ± 0.0014 | 0.035 ± 0.042 | -0.006 ± 0.0085 | 0.002 | 0.0145 ± 0.019
13 | KF3CT:uPA | -0.014 ± 0.013 | 0.0105 ± 0.044 | 0.0015 ± 0.005 | -0.0115 ± 0.019 | 0.008 ± 0.03 | -0.0015 ± 0.018 | 0.0005 ± 0.0035 | 0.0145 ± 0.018 | 0.016 ± 0.017 | 0.0145 ± 0.025 | 0.0055 ± 0.00071 | 0.003 ± 0.0014 | -0.0155 ± 0.011 | -0.014 ± 0.0028 | 0.006 ± 0.011 | 0.001 ± 0.011 | -0.0015 ± 0.005 | 0.006 ± 0.011 | 0.008 ± 0.016 | 0.011 ± 0.028
14 | KF3CT:SRB | 0.0015 ± 0.0064 | 0.005 ± 0.0057 | -0.004 | 0.0005 ± 0.0035 | 0.006 ± 0.016 | 0.0015 ± 0.00071 | -0.004 ± 0.011 | 0.0125 ± 0.005 | -0.0095 ± 0.011 | -0.0315 ± 0.0078 | -0.026 ± 0.0028 | -0.002 ± 0.0028 | 0 ± 0.0042 | 0.001 ± 0.016 | -0.0075 ± 0.0021 | -0.008 | 0 ± 0.013 | 0.0025 ± 0.0021 | 0.0015 ± 0.005 | 0.0045 ± 0.00071
